Consider four molecules from patent publication US9284302B2, “Cyclobutyl benzimidazoles as PDE 10 inhibitors” (Merck Sharp & Dohme Corp., priority 2012, dated 2016).

Chain of human PDE10A2 (Q9Y233 267-1055): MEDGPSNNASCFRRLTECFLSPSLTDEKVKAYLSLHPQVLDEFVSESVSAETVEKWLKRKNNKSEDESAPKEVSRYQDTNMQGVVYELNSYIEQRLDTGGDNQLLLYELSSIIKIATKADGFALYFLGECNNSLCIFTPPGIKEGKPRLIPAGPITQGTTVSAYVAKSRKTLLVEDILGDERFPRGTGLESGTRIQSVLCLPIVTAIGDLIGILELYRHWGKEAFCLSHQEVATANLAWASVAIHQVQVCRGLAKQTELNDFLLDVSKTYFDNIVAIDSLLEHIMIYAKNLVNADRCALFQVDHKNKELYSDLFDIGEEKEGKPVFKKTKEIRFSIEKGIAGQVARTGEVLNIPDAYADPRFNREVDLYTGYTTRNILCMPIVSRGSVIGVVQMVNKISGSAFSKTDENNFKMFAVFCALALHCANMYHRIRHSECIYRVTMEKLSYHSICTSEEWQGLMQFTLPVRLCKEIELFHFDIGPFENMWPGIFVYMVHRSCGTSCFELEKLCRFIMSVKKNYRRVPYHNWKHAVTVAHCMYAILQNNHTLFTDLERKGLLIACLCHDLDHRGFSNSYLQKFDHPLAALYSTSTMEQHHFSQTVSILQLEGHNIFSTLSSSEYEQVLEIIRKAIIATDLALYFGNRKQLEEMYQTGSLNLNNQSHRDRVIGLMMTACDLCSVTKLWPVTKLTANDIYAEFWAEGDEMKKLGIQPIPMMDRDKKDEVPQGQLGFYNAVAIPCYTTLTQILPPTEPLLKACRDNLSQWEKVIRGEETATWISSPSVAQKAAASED

The assay addresses human PDE10A2 (Homo sapiens (Human), UniProt Q9Y233). The experiment in a line: PDE10 fluorescence polarization (IMAP FP) inhibition assay. It is filed as biochemical. The conditions noted are these: apparent inhibition constant; FAM-labeled cAMP substrate 50 nM, room temperature; read-out: PDE10a Ki. The method, then: The activity of the compounds in accordance with the present invention as PDE10 inhibitors may be readily determined without undue experimentation using a fluorescence polarization (FP) methodology that is well known in the art (Huang, W., et al., J. Biomol Screen, 2002, 7: 215).
In a typical experiment the PDE10 inhibitory activity of the compounds of the present invention was determined in accordance with the following experimental method. PDE10A2 was amplified from human fetal brain cDNA (Clontech, Mountain View, Calif.) using a forward primer corresponding to nucleotides 56-77 of human PDE10A2 (Accession No. AF127480, Genbank Identifier 4894716), containing a Kozak consensus sequence, and a reverse primer corresponding to nucleotides 2406-2413 of human PDE10A2 (Accession No. AF127480, Genbank Identifier 4894716). Amplification with Easy-A polymerase (Stratagene, La Jolla, Calif.) was 95° C. for 2 minutes followed by thirty three cycles of 95° C. for 40 seconds, 55° C. for 30 seconds, and 72° C. for 2 minutes 48 seconds. Final extension was 72° C. for 7 minutes. The PCR product was TA cloned into pcDNA3.2-TOPO (Invitrogen, Carlsbad, Calif.) according to standard protocol. AD293 cells with 70-80% confluency were transiently transfected with human PDE10A2/pcDNA3.2-TOPO using Lipofectamine 2000 according to manufacturer specifications (Invitrogen, Carlsbad, Calif.). Cells were harvested 48 hours post-transfection and lysed by sonication (setting 3, 10×5 sec pulses) in a buffer containing 20 mM HEPES, 1 mM EDTA and protease inhibitor cocktail (Roche). Lysate was collected by centrifugation at 75,000 xg for 20 minutes. Supernatant containing the cytoplasmic fraction was used for evaluation of PDE10A2 activity. The fluorescence polarization assay for cyclic nucleotide phosphodiesterases was performed using an IMAP® FP kit supplied by Molecular Devices, Sunnyvale, Calif. (product #R8139). IMAP® technology has been applied previously to phosphodiesterase assays (Huang, W., et al., J. Biomol Screen, 2002, 7: 215). Assays were performed at room temperature in 384-well microtiter plates with an incubation volume of 20.2 μL. Solutions of test compounds were prepared in DMSO and serially diluted with DMSO to yield 8 μL of each of 10 solutions differing by 3-fold in concentration, at 32 serial dilutions per plate. […] 0% of inhibition is determined by using DMSO (1% final concentrations). […]
With `Cc1nc(-n2nc(C)nc2C)cc(C2(O)CC(c3nc4ccccc4n3C)C2)n1` (stereo not shown) [Example 1, 1-(6-(3,5-dimethyl-1H-1,2,4-triazol-1-yl)-2-methylpyrimidin-4-yl)-3-(1-methyl-1H-benzo[d]imidazol-2-yl)cyclobutanol], the Ki was more than 75 nM.

`Cc1nc(-n2nc(C)nc2C)cc(C2(F)CC(c3nc4ccccc4n3C)C2)n1` (stereo not shown) [Example 2, 2-(3-(6-(3,5-dimethyl-1H-1,2,4-triazol-1-yl)-2-methylpyrimidin-4-yl)-3-fluorocyclobutyl)-1-methyl-1H-benzo[d]imidazole]: the Ki was 88 nM.

Consider `Cc1nc(-n2nc(C)nc2C)cc([C@H]2C[C@@H](c3nc4ccccc4n3C)C2)n1` [Example 3, 2-((cis)-3-(6-(3,5-dimethyl-1H-1,2,4-triazol-1-yl)-2-methylpyrimidin-4-yl)cyclobutyl)-1-methyl-1H-benzo[d]imidazole], for which the Ki was found to be 2.8 nM.

For `Cc1nc(-n2nc(C)nc2C)cc([C@H]2C[C@H](c3nc4ccccc4n3C)C2)n1` [Example 4, 2-((trans)-3-(6-(3,5-dimethyl-1H-1,2,4-triazol-1-yl)-2-methylpyrimidin-4-yl)cyclobutyl)-1-methyl-1H-benzo[d]imidazole], the Ki is 4.7 nM.
